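Step 1: Grow cells in 96-well plates. Step 2: Expose to compound for 48 hours at 5 concentrations. Step 3: Interpolate endpoints linearly; if unreached, use highest concentration. The concentration for 50% growth inhibition is given as GI50.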 Activity calls are given as the source filed them. No stated cut-off is given here; in the data, active = GI50 up to about 1.1 µM and inactive = higher.
Legend:
Assay in all cases: growth of human tumour cells (NCI), 48 h
MCF7 = tested on: MCF7
HCT-15 = tested on: HCT-15
MOLT-4 = tested on: MOLT-4
UACC-62 = tested on: UACC-62
OVCAR-8 = tested on: OVCAR-8
PC-3 = tested on: PC-3
RXF 393 = tested on: RXF 393
HOP-62 = tested on: HOP-62
SK-MEL-2 = tested on: SK-MEL-2
IGROV-1 = tested on: IGROV-1
A498 = tested on: A498
NCI-H226 = tested on: NCI-H226
HT-29 = tested on: HT-29
CAKI-1 = tested on: CAKI-1
SF-268 = tested on: SF-268
SF-539 = tested on: SF-539
EKVX = tested on: EKVX

SMILES | GI50 (MCF7) | GI50 (HCT-15) [µM] | GI50 (MOLT-4) | GI50 (UACC-62) | GI50 (OVCAR-8) | GI50 (PC-3) | GI50 (RXF 393) | GI50 (HOP-62) | GI50 (SK-MEL-2) | GI50 (IGROV-1) | GI50 (A498) | GI50 (NCI-H226) | GI50 (HT-29) | GI50 (CAKI-1) | GI50 (SF-268) | GI50 (SF-539) | GI50 (EKVX)
COc1ccc(C2C=C(c3ccccc3)Nc3nnnn32)cc1 (stereo unspecified) | 20.2 µM (inactive) | 31 | > 100 µM (inactive) | 50.4 µM (inactive) | 47.4 µM (inactive) | 49 µM (inactive) | 20.3 µM (inactive) | 25.5 µM (inactive) | 38.7 µM (inactive) | 82.8 µM (inactive) | 34.4 µM (inactive) | 64 µM (inactive) | 18.1 µM (inactive) | 54 µM (inactive) | 44.9 µM (inactive) | 23.7 µM (inactive) | 
O=C(O)c1cccc(C(=O)O)c1[S+]([O-])Cc1ccccc1 (stereo unspecified) | > 100 µM (inactive) | > 100 |  | > 100 µM (inactive) | > 100 µM (inactive) | > 100 µM (inactive) | > 100 µM (inactive) | > 100 µM (inactive) | > 100 µM (inactive) | > 100 µM (inactive) | > 100 µM (inactive) | > 100 µM (inactive) | > 100 µM (inactive) | > 100 µM (inactive) | > 100 µM (inactive) | > 100 µM (inactive) | > 100 µM (inactive)
COC(=O)/C=C1/OC(c2ccccc2)=CC1=O | 11.7 µM (inactive) | 15.6 | 6.38 µM (inactive) | 18.6 µM (inactive) | 15 µM (inactive) | 20.4 µM (inactive) | 14.5 µM (inactive) | 21.6 µM (inactive) | 22.5 µM (inactive) | 16 µM (inactive) | 13.7 µM (inactive) | 24.6 µM (inactive) | 18.5 µM (inactive) | 19.4 µM (inactive) | 19.1 µM (inactive) | 20.3 µM (inactive) | 17.9 µM (inactive)
CCC1(O)CN(CCOC)[C@H]2C[C@@H]1C(=O)c1[nH]c3ccccc3c12 (stereo partly specified) | > 100 µM (inactive) | > 100 | > 100 µM (inactive) |  | > 100 µM (inactive) | > 100 µM (inactive) | > 100 µM (inactive) | > 100 µM (inactive) | > 100 µM (inactive) | > 100 µM (inactive) | > 100 µM (inactive) | > 100 µM (inactive) | > 100 µM (inactive) | > 100 µM (inactive) | > 100 µM (inactive) | > 100 µM (inactive) | > 100 µM (inactive)
C1CSCCSCCCSCCSCCCSCCSCCCSCCSC1 | > 100 µM (inactive) | > 100 | > 100 µM (inactive) |  | > 100 µM (inactive) | 69.3 µM (inactive) | > 100 µM (inactive) | > 100 µM (inactive) | > 100 µM (inactive) | > 100 µM (inactive) | > 100 µM (inactive) | > 100 µM (inactive) | > 100 µM (inactive) | > 100 µM (inactive) | > 100 µM (inactive) | > 100 µM (inactive) | > 100 µM (inactive)
CC(=O)C1(/N=N/c2ccc(S(N)(=O)=O)cc2)CCOC1=O (stereo unspecified) | > 100 µM (inactive) | > 100 |  | > 100 µM (inactive) | > 100 µM (inactive) | > 100 µM (inactive) | > 100 µM (inactive) | > 100 µM (inactive) | > 100 µM (inactive) | > 100 µM (inactive) | > 100 µM (inactive) | > 100 µM (inactive) | > 100 µM (inactive) | > 100 µM (inactive) | > 100 µM (inactive) | > 100 µM (inactive) | > 100 µM (inactive)
COc1ccc(NC(=O)C(C#N)=C(SC)SC)cc1 | > 100 µM (inactive) | > 100 | > 100 µM (inactive) | > 100 µM (inactive) |  | > 100 µM (inactive) | > 100 µM (inactive) | > 100 µM (inactive) | > 100 µM (inactive) | 58.6 µM (inactive) | > 100 µM (inactive) | > 100 µM (inactive) | > 100 µM (inactive) | 50.5 µM (inactive) | > 100 µM (inactive) | > 100 µM (inactive) | > 100 µM (inactive)
O=C(CCCl)NN=C1NCCCN1 | > 100 µM (inactive) | > 100 | > 100 µM (inactive) | > 100 µM (inactive) | > 100 µM (inactive) | > 100 µM (inactive) | > 100 µM (inactive) | > 100 µM (inactive) | > 100 µM (inactive) | > 100 µM (inactive) | > 100 µM (inactive) | > 100 µM (inactive) | > 100 µM (inactive) |  | > 100 µM (inactive) | > 100 µM (inactive) | > 100 µM (inactive)
CC(C)=CCc1c(O)c(CC=C(C)C)c2oc(-c3ccc(O)cc3O)c(CC=C(C)C)c(=O)c2c1O | 3.98 µM (inactive) | 5.47 | 3.33 µM (inactive) | 7.14 µM (inactive) | 4.88 µM (inactive) | 6.46 µM (inactive) | 4.99 µM (inactive) | 9.06 µM (inactive) | 3.66 µM (inactive) | 10.6 µM (inactive) | 13.8 µM (inactive) | 23 µM (inactive) | 7.96 µM (inactive) | 12.7 µM (inactive) | 9.16 µM (inactive) | 16.3 µM (inactive) | 12.4 µM (inactive)
C/C(=N\Nc1nc2ccccc2s1)c1ncccn1 | 0.0164 µM (active) | 0.0215 | < 0.01 µM (active) | 0.101 µM (active) | < 0.016 µM (active) | 0.118 µM (active) | 1.04 µM (active) | 0.131 µM (active) | 0.92 µM (active) | 0.0183 µM (active) | 3.13 µM (inactive) | < 0.0185 µM (active) | < 0.01 µM (active) | < 0.01 µM (active) | 0.0345 µM (active) | 0.0757 µM (active) | < 0.0111 µM (active)
C=C1c2nc3ccccc3n2C=C(c2ccc(Cl)cc2)N1c1ccc(OC)cc1 | 7.4 µM (inactive) | 10.1 | 73.1 µM (inactive) | 13 µM (inactive) | 4.43 µM (inactive) | 15.4 µM (inactive) | 10.1 µM (inactive) |  | 22.9 µM (inactive) | 6.27 µM (inactive) | 20.6 µM (inactive) | 5.46 µM (inactive) |  | 4.58 µM (inactive) |  | 5.87 µM (inactive) | 8.51 µM (inactive)
CC(=O)C(=CNc1c(C)n(C)n(-c2ccccc2)c1=O)C(C)=O | > 100 µM (inactive) | > 100 | > 100 µM (inactive) | > 100 µM (inactive) | > 100 µM (inactive) | > 100 µM (inactive) | > 100 µM (inactive) |  | > 100 µM (inactive) | > 100 µM (inactive) | > 100 µM (inactive) | > 100 µM (inactive) |  | > 100 µM (inactive) |  | > 100 µM (inactive) | > 100 µM (inactive)
CN(C)CCCN1C(=O)N(CCCN(C)C)c2c3cc(O)ccc3nc3c([N+](=O)[O-])ccc1c23 | 11.3 µM (inactive) | 13.1 |  | 11.9 µM (inactive) | 15.8 µM (inactive) | 8.24 µM (inactive) | 11.9 µM (inactive) | 17.2 µM (inactive) | 15.6 µM (inactive) | 4.57 µM (inactive) | 22 µM (inactive) | 23.2 µM (inactive) | 11.8 µM (inactive) | 23.3 µM (inactive) | 10.3 µM (inactive) | 16 µM (inactive) | 

— ChEMBL document CHEMBL1201862, “PubChem BioAssay data set” (2004)
